Where two headings read alike, the source gives them in different places.
Conditions: for Blood, % Dose in Whole Organ / Blood, % dose / 1 % body weight / Bone Ave, % Dose/1 % Body weight / Femur, % dose / 1 % body weight / Kidneys, % Dose in Whole Organ / Kidneys, % dose / 1 % body weight / Liver, % Dose in Whole Organ / Liver, % dose / 1 % body weight / Marrow, % Dose in Whole Organ / Marrow, % dose / 1 % body weight / Muscle, % Dose in Whole Organ / Muscle, % dose / 1 % body weight / Pelvis, % dose / 1 % body weight / Spine, % dose / 1 % body weight / Tibia, % dose / 1 % body weight / Urine, % Dose / W. Femur, % Dose in Whole Organ / W. Tibia, % Dose in Whole Organ: 2 Hrs; for Ratio 99mTc/85Sr, Ave Bone / Ratio 99mTc/85Sr, Blood / Ratio 99mTc/85Sr, Femur / Ratio 99mTc/85Sr, Kidneys / Ratio 99mTc/85Sr, Liver / Ratio 99mTc/85Sr, Marrow / Ratio 99mTc/85Sr, Muscle / Ratio 99mTc/85Sr, Pelvis / Ratio 99mTc/85Sr, Spine / Ratio 99mTc/85Sr, Tibia: 2 hours

## 99m technetium-tin-1-amino-ethane-1,1-diphosphonate [99mTc-Sn-AEDP]
AEDP 0.01 mg/kg
  Blood, % Dose in Whole Organ: 1.18 % Dose
  Blood, % dose / 1 % body weight: 0.168 % Dose/1 % Body weight
  Bone Ave, % Dose/1 % Body weight: 7.60 % Dose/1 % Body weight
  Femur, % dose / 1 % body weight: 7.54 % Dose/1 % Body weight
  Kidneys, % Dose in Whole Organ: 1.59 % Dose
  Kidneys, % dose / 1 % body weight: 2.72 % Dose/1 % Body weight
  Liver, % Dose in Whole Organ: 1.69 % Dose
  Liver, % dose / 1 % body weight: 0.617 % Dose/1 % Body weight
  Marrow, % Dose in Whole Organ: 0.657 % Dose
  Marrow, % dose / 1 % body weight: 0.300 % Dose/1 % Body weight
  Muscle, % Dose in Whole Organ: 0.988 % Dose
  Muscle, % dose / 1 % body weight: 0.037 % Dose/1 % Body weight
  Pelvis, % dose / 1 % body weight: 8.53 % Dose/1 % Body weight
  Spine, % dose / 1 % body weight: 6.20 % Dose/1 % Body weight
  Tibia, % dose / 1 % body weight: 8.13 % Dose/1 % Body weight
  Urine, % Dose: 48.39 % Dose
  W. Femur, % Dose in Whole Organ: 2.34 % Dose
  W. Tibia, % Dose in Whole Organ: 1.96 % Dose
AEDP 0.05 mg/kg
  Blood, % Dose in Whole Organ: 1.01 % Dose
  Blood, % dose / 1 % body weight: 0.144 % Dose/1 % Body weight
  Bone Ave, % Dose/1 % Body weight: 8.39 % Dose/1 % Body weight
  Femur, % dose / 1 % body weight: 8.63 % Dose/1 % Body weight
  Kidneys, % Dose in Whole Organ: 1.13 % Dose
  Kidneys, % dose / 1 % body weight: 1.83 % Dose/1 % Body weight
  Liver, % Dose in Whole Organ: 0.806 % Dose
  Liver, % dose / 1 % body weight: 0.176 % Dose/1 % Body weight
  Marrow, % Dose in Whole Organ: 0.549 % Dose
  Marrow, % dose / 1 % body weight: 0.250 % Dose/1 % Body weight
  Muscle, % Dose in Whole Organ: 1.20 % Dose
  Muscle, % dose / 1 % body weight: 0.028 % Dose/1 % Body weight
  Pelvis, % dose / 1 % body weight: 7.82 % Dose/1 % Body weight
  Spine, % dose / 1 % body weight: 7.80 % Dose/1 % Body weight
  Tibia, % dose / 1 % body weight: 9.30 % Dose/1 % Body weight
  Urine, % Dose: 44.21 % Dose
  W. Femur, % Dose in Whole Organ: 2.41 % Dose
  W. Tibia, % Dose in Whole Organ: 2.14 % Dose
AEDP 0.1 mg/kg
  Blood, % Dose in Whole Organ: 0.96 % Dose
  Blood, % dose / 1 % body weight: 0.137 % Dose/1 % Body weight
  Bone Ave, % Dose/1 % Body weight: 7.51 % Dose/1 % Body weight
  Femur, % dose / 1 % body weight: 7.93 % Dose/1 % Body weight
  Kidneys, % Dose in Whole Organ: 0.913 % Dose
  Kidneys, % dose / 1 % body weight: 1.28 % Dose/1 % Body weight
  Liver, % Dose in Whole Organ: 0.309 % Dose
  Liver, % dose / 1 % body weight: 0.083 % Dose/1 % Body weight
  Marrow, % Dose in Whole Organ: 0.211 % Dose
  Marrow, % dose / 1 % body weight: 0.096 % Dose/1 % Body weight
  Muscle, % Dose in Whole Organ: 1.46 % Dose
  Muscle, % dose / 1 % body weight: 0.034 % Dose/1 % Body weight
  Pelvis, % dose / 1 % body weight: 6.24 % Dose/1 % Body weight
  Spine, % dose / 1 % body weight: 7.36 % Dose/1 % Body weight
  Tibia, % dose / 1 % body weight: 8.50 % Dose/1 % Body weight
  Urine, % Dose: 38.8 % Dose
  W. Femur, % Dose in Whole Organ: 2.38 % Dose
  W. Tibia, % Dose in Whole Organ: 2.18 % Dose
AEDP 0.5 mg/kg
  Blood, % Dose in Whole Organ: 1.38 % Dose
  Blood, % dose / 1 % body weight: 0.197 % Dose/1 % Body weight
  Bone Ave, % Dose/1 % Body weight: 6.96 % Dose/1 % Body weight
  Femur, % dose / 1 % body weight: 6.59 % Dose/1 % Body weight
  Kidneys, % Dose in Whole Organ: 1.11 % Dose
  Kidneys, % dose / 1 % body weight: 2.11 % Dose/1 % Body weight
  Liver, % Dose in Whole Organ: 0.216 % Dose
  Liver, % dose / 1 % body weight: 0.079 % Dose/1 % Body weight
  Marrow, % Dose in Whole Organ: 0.23 % Dose
  Marrow, % dose / 1 % body weight: 0.104 % Dose/1 % Body weight
  Muscle, % Dose in Whole Organ: 0.883 % Dose
  Muscle, % dose / 1 % body weight: 0.021 % Dose/1 % Body weight
  Pelvis, % dose / 1 % body weight: 7.93 % Dose/1 % Body weight
  Spine, % dose / 1 % body weight: 6.05 % Dose/1 % Body weight
  Tibia, % dose / 1 % body weight: 7.27 % Dose/1 % Body weight
  Urine, % Dose: 48.85 % Dose
  W. Femur, % Dose in Whole Organ: 1.74 % Dose
  W. Tibia, % Dose in Whole Organ: 1.55 % Dose
0.01 mg/kg
  Ratio 99mTc/85Sr, Ave Bone: 0.735
  Ratio 99mTc/85Sr, Blood: 0.406
  Ratio 99mTc/85Sr, Femur: 0.720
  Ratio 99mTc/85Sr, Kidneys: 4.99
  Ratio 99mTc/85Sr, Liver: 3.00
  Ratio 99mTc/85Sr, Marrow: 1.27
  Ratio 99mTc/85Sr, Muscle: 0.338
  Ratio 99mTc/85Sr, Pelvis: 0.794
  Ratio 99mTc/85Sr, Spine: 0.689
  Ratio 99mTc/85Sr, Tibia: 0.710
0.05 mg/kg
  Ratio 99mTc/85Sr, Ave Bone: 0.683
  Ratio 99mTc/85Sr, Blood: 0.409
  Ratio 99mTc/85Sr, Femur: 0.687
  Ratio 99mTc/85Sr, Kidneys: 3.30
  Ratio 99mTc/85Sr, Liver: 1.32
  Ratio 99mTc/85Sr, Marrow: 1.18
  Ratio 99mTc/85Sr, Muscle: 0.236
  Ratio 99mTc/85Sr, Pelvis: 0.684
  Ratio 99mTc/85Sr, Spine: 0.675
  Ratio 99mTc/85Sr, Tibia: 0.681
0.1 mg/kg
  Ratio 99mTc/85Sr, Ave Bone: 0.716
  Ratio 99mTc/85Sr, Blood: 0.409
  Ratio 99mTc/85Sr, Femur: 0.714
  Ratio 99mTc/85Sr, Kidneys: 2.94
  Ratio 99mTc/85Sr, Liver: 0.490
  Ratio 99mTc/85Sr, Marrow: 0.621
  Ratio 99mTc/85Sr, Muscle: 0.205
  Ratio 99mTc/85Sr, Pelvis: 0.725
  Ratio 99mTc/85Sr, Spine: 0.705
  Ratio 99mTc/85Sr, Tibia: 0.721
0.5 mg/kg
  Ratio 99mTc/85Sr, Ave Bone: 0.644
  Ratio 99mTc/85Sr, Blood: 0.280
  Ratio 99mTc/85Sr, Femur: 0.628
  Ratio 99mTc/85Sr, Kidneys: 2.47
  Ratio 99mTc/85Sr, Liver: 0.459
  Ratio 99mTc/85Sr, Marrow: 0.500
  Ratio 99mTc/85Sr, Muscle: 0.140
  Ratio 99mTc/85Sr, Pelvis: 0.692
  Ratio 99mTc/85Sr, Spine: 0.614
  Ratio 99mTc/85Sr, Tibia: 0.632
